We go through 10 compounds from patent US6506393B2, “Methods of treating protozoal diseases” (Zentaris AG, priority 1991, dated 2003).

Data set [1] relates to L. donovani. Briefly: Effect of leishmaniasis drugs on the number of pathogens in liver and spleen of rats infected with L. donovani (Examples 39, 40). The class given is in vivo. The following applies: for Relative effectiveness (pathogens per liver after Pentostam therapy divided by pathogens/liver after addition of test substance) / Pathogens per liver (in millions): orally 5 × 20 mg/kg/week for 3 weeks; for Pathogens per liver (in millions): rats infected with L. donovani, microscopic analysis. As to the method:
Effect of various leishmaniasis drugs on the presence of pathogens in the liver of experimental animals (rats) infected with L. donovani.
The compounds according to the present invention and Et18OCH3 were administered orally while Pentostam was administered intravenously.
The number of pathogens per liver was determined by microscopic analysis.
The experimental procedure was as described in example 39.

The test system of data set [2] is L. donovani. The description is as above. The class given is in vivo. The following applies: for Pathogens per spleen (in millions): 3 week period of therapy; for Relative effectiveness (pathogens per spleen after Pentostam therapy divided by pathogens/spleen after addition of test substance): procedure as in example 39 (orally 5 × 20 mg/kg/week for 3 weeks).
Data set [3] concerns L. donovani strain MHOM/IN/54LRC-L.51 promastigotes. Briefly: Effect on pathogens in vitro: promastigote culture, 96 hours, counting chamber (Example 41). The class given is cell-based. Conditions: 96 hours of incubation, 26° C., mean and SD of 3 experiments; for IC50: Leishmania donovani. On the procedure:
Several compounds of the invention were tested against L. donovani strain MHOM/IN/54LRC-L.51, isolated from a patient with visceral leishmaniasis. Before use for experiments, the strain was passed through Balb/c mice by intravenous injection.
Promastigotes were cultured in vitro in a mixed medium consisting of one part of HOSMEM and one part of RPMI-1640 (Gibco 041-02400) supplemented with 10% heat-inactivated fetal bovine serum (Gibco 011-06290) at 26° C. Cultures were maintained by seeding 5×10^6 promastigotes from 4-day-old cultures into 10 ml fresh medium. The promastigotes were cultured in 24-well-multiplates. After 96 hours of incubation in control or drug-containing media, the number of promastigotes was determined in a Neubauer counting chamber. The 50% inhibitory concentration was calculated graphically. The data is representative of the mean and SD values of 3 different experiments.

For data set [4] the following is noted: in vivo, sc; cited from earlier work.
A further data set deals with Leishmania. Briefly: Four-week treatment period of Leishmania-infected mice (Example 43). Format: in vivo. An excerpt:
In a further experiment, hexadecylphosphocholine was investigated in more detail.

Data set [5] relates to three strains of Leishmania (L. donovani MHOM/IN/54LRC-L.51; L. donovani MHOM/IN/80/DDS and L. infantum MHOM/ES/86/STI-172). Briefly: Effect on pathogens in vivo: parasite burden in liver and spleen of infected Balb/c mice (Example 42). As to the method: Several compounds of the invention were tested against three strains of Leishmania (L. donovani MHOM/IN/54LRC-L.51; L. donovani MHOM/IN/80/DDS and L. infantum MHOM/ES/86/STI-172). All strains were isolated from patients with visceral leishmaniasis. Before use for experiments, the strains were passed through Balb/c mice by intravenous injection.
Balb/c mice were infected by intravenous injection of a mixture of 10^7 promastigotes from stationary growth phase and 10^7 amastigotes which were isolated from the liver or spleen of leishmania-infected mice. Oral treatment with the compounds of the invention was initiated on day 7, at which time the mean parasitic burden was 100 to 200×10^6 amastigotes per liver, 1 to 2×10^6 per spleen and 3 to 6 amastigotes per microscopic field of 100 hematopoietic cells in bone marrow.
Parasite burden in spleen and liver were determined in GIEMSA's stained impression smears from cut sections by counting the number of amastigotes per 1000 spleen or liver nuclei. The total number of amastigotes per organ was calculated according to Stauber et al. (J. Protozool. 5:269-273 (1958)). Parasite suppression (parasite burden of drug treated mice to parasite burden of untreated mice) and parasite killing (parasite burden at the end of treatment to parasite burden at the start of treatment) were calculated according to Baumann et al. (Antimicrob. Agents Chemother. 35:1403-1407 (1991)) for all strains on day 14, for the strain LRC-L.51 in addition on days 21, 25 and 35 post-infectionem. The parasite burden in the bone marrow was examined on days 7 and 35 post-infectionem (strain LRC-L.51).
Table V summarizes the in vivo treatment results of several compounds of the invention in the liver and the spleen of treated mice. […] However, it is clear from the Table that the compounds of the invention produced much better results.

The mark [6] stands for this setting: procedure as in example 39 (orally 5 × 20 mg/kg/week).

≈ marks a conversion by molar mass, not a printed value. Entries after “also recorded” stand apart in the source; their conditions may differ.

For the compound `CCCCCCCCCCCCCCCCCCOCC(COP(=O)([O-])OCC[N+](C)(C)C)OC` (racemic) [Et18OCH3, 1-octadecyl-2-methyl-rac-glycero-3-phosphocholine, reference compound], in the data set on L. donovani [1], the “Relative effectiveness (pathogens per liver after Pentostam therapy divided by pathogens/liver after addition of test substance)” value came to 0.007 and the “Pathogens per liver (in millions)” value stood at 424.7 millions. In addition, in the data set on L. donovani [2] (setting [6]), the “Pathogens per spleen (in millions)” value worked out at 6.5 millions. The “Relative effectiveness (pathogens per spleen after Pentostam therapy divided by pathogens/spleen after addition of test substance)” value with L. donovani [2] worked out at 0.9.

Broadly, the IC50 is the concentration that inhibits the measured activity by half. Low readings indicate higher potency, high ones lower potency. For the compound `CCCCCCCCCCCCCCCCOP(=O)([O-])OCC[N+](C)(C)C` [Example 1, Hexadecylphosphocholine], the IC50 in data set [3] worked out at 2.07 ± 0.23 µg/mL (≈ 5.08 µM). Also, in data set [4], the “Toxicity for the experimental animals, in particular for macrophages” value is reported as “highly toxic”. For the same compound, in the data set on L. donovani [1] (additional experiments, single oral dose of 200 mg), the “Parasites microscopically detectable in the liver and in the spleen” value is given as “no longer microscopically detectable”. In addition, in the data set with L. donovani [1], the “Pathogens per liver (in millions)” value was found to be 0.1 millions. In the data set with L. donovani [2] (setting [6]), the “Pathogens per spleen (in millions)” value was 0.01 millions. Moreover, the Parasites microscopically detectable in the data set on L. donovani [2] (several additional experiments (Example 40, spleen), single oral dose of 200 mg) is “no longer microscopically detectable”. Besides, in the data set on Leishmania (Leishmania-infected mice, 10 mg (oral)), the “Spleen Weight” value is 150 mg. For the same compound, the “Reduction of parasites in the spleen” value with Leishmania (spleen, oral treatment with 20 mg/kg) was “more than three log rank reduction of parasites”. Moreover, in data set [5] (oral treatment, dose 20 mg/kg), the “Parasites (× 10^6) Liver” value was 0.07 × 10^6 and the “Parasites (× 10^6) Spleen” value is listed as 0.008 × 10^6.

`CCCCCCCCCCCCCCCCCCOP(=O)([O-])OCC[N+](C)(C)C` [Example 2, Octadecylphosphocholine]: it took 0.8 ± 0.2 µg/mL (≈ 1.84 µM) to reach half-maximal inhibition in data set [3] (IC50). For the same compound, in the data set with L. donovani [1], the “Relative effectiveness (pathogens per liver after Pentostam therapy divided by pathogens/liver after addition of test substance)” value is given as 32.0 and the “Pathogens per liver (in millions)” value is on record as 0.1 millions. Further, the “Pathogens per spleen (in millions)” value in the data set with L. donovani [2] (setting [6]) turned out to be 0.01 millions. For the same compound, the “Relative effectiveness (pathogens per spleen after Pentostam therapy divided by pathogens/spleen after addition of test substance)” value in the data set on L. donovani [2] came out at 630.0. In data set [5] (oral treatment, dose 20 mg/kg), the “Parasites (× 10^6) Liver” value is recorded as 0.07 × 10^6 and the “Parasites (× 10^6) Spleen” value is recorded as 0.015 × 10^6.

With `CCCCCCCC/C=C/CCCCCCCCOP(=O)([O-])OCC[N+](C)(C)C` [Example 4, Elaidylphosphocholine], the midpoint of inhibition in data set [3], the IC50, lay at 0.41 ± 0.14 µg/mL (≈ 0.946 µM). In data set [5] (oral treatment, dose 20 mg/kg), the “Parasites (× 10^6) Liver” value is recorded as 28 × 10^6 and the “Parasites (× 10^6) Spleen” value is listed as 0.02 × 10^6.

In the case of `CCCCCCCC/C=C\CCCCCCCCOP(=O)([O-])OCC[N+](C)(C)CC` [Example 7, Oleylphospho-(N.N-dimethyl-N-ethyl)ethanolamine], the “Relative effectiveness (pathogens per liver after Pentostam therapy divided by pathogens/liver after addition of test substance)” value is given as 0.7 with L. donovani [1] (20 mg/kg) and “comparable effect to Pentostam” in the data set with L. donovani [1] (listed as olely-phospho-(N.N-dimethyl-N-ethyl)ethanolamine, 20 mg/kg). Besides, the “Pathogens per liver (in millions)” value in the data set with L. donovani [1] is given as 4.7 millions. In the data set with L. donovani [2] (setting [6]), the “Pathogens per spleen (in millions)” value is on record as 0.03 millions. The “Relative effectiveness (pathogens per spleen after Pentostam therapy divided by pathogens/spleen after addition of test substance)” value in the data set on L. donovani [2] came to 210.0.

`CCCCCCCCCCCCCCCCCCOP(=O)([O-])OCC[N+]1(C)CCCC1` [Example 19, Octadecylphospho-(N-methyl)-pyrrolidino-ethyl ester]: the “IC50 Value” in data set [3] was 3.59 ± 0.19 µg/mL (≈ 7.78 µM). For the same compound, in data set [5] (oral treatment, dose 20 mg/kg), the “Parasites (× 10^6) Liver” value is given as 22 × 10^6 and the “Parasites (× 10^6) Spleen” value was 0.035 × 10^6.

For `CCCCCCCC/C=C\CCCCCCCCOP(=O)([O-])OCC[N+](C)(CC)CC` [Example 20, Oleylphospho-(N.N-diethyl-N-methyl)-ethanolamine], the “IC50 Value” in data set [3] worked out at 2.80 ± 0.50 µg/mL (≈ 6.06 µM). In data set [5] (oral treatment, dose 20 mg/kg), the “Parasites (× 10^6) Liver” value is 55 × 10^6 and the “Parasites (× 10^6) Spleen” value is 3.8 × 10^6.

With `O.O.O.O.O.O.O.O.O.O=C([O-])[C@@H]1[O][Sb]2([O-])([O][Sb]34([OH])[O][C@H]([C@H](O)CO)[C@H]([O]3)[C@H](C(=O)[O-])[O]4)[O][C@H]([C@H](O)CO)[C@@H]1[O]2.[Na+].[Na+].[Na+]` [Pentostam, sodium stibogluconate, reference compound], in the data set with L. donovani [2] (procedure as in example 39 (Pentostam iv. 5 × 120 mg/kg/week), 120 mg/kg), the “Pathogens per spleen (in millions)” value is “weak effect; also recorded: extremely low effectiveness”. Moreover, the “Suppression of parasite growth in the spleen compared to control mice” value with Leishmania (spleen, Pentostam) is listed as “only a moderate suppression of parasite growth”. In data set [5] (Pentostam, dose 120 mg/kg), the “Parasites (× 10^6) Liver” value is reported as “significantly reduced the parasite burden” and the “Parasites (× 10^6) Spleen” value was “significantly reduced the parasite burden”.

For `CCCCCCCC/C=C\CCCCCCCCOP(=O)([O-])OCC[N+](CC)(CC)CC` [cis-9-octadecenylphospho-(N,N-diethyl,N-ethylamino)ethanol], in data set [3], the “IC50 Value” worked out at 0.66 ± 0.24 µg/mL (≈ 1.39 µM). For the same compound, in data set [5] (oral treatment, dose 20 mg/kg), the “Parasites (× 10^6) Liver” value is recorded as 6 × 10^6 and the “Parasites (× 10^6) Spleen” value is listed as 0.03 × 10^6.

Turning to “octadecylphosphoethanol-(N-methyl)piperidine”, the “IC50 Value” in data set [3] worked out at 4.90 ± 0.50 µg/mL. Moreover, in data set [5] (oral treatment, dose 20 mg/kg), the “Parasites (× 10^6) Liver” value is reported as 65 × 10^6 and the “Parasites (× 10^6) Spleen” value was 0.35 × 10^6.
